Molecules are shown by their SMILES.

Results on 7 molecules are retold here after patent US20170050966A1, “INHIBITING THE TRANSIENT RECEPTOR POTENTIAL A1 ION CHANNEL” (HYDRA BIOSCIENCES, INC., priority 2014, published 2017).

The target in one data set is T1, CYP1A2 (Homo sapiens, UniProt P05177).
T1 sequence (P05177 1-516): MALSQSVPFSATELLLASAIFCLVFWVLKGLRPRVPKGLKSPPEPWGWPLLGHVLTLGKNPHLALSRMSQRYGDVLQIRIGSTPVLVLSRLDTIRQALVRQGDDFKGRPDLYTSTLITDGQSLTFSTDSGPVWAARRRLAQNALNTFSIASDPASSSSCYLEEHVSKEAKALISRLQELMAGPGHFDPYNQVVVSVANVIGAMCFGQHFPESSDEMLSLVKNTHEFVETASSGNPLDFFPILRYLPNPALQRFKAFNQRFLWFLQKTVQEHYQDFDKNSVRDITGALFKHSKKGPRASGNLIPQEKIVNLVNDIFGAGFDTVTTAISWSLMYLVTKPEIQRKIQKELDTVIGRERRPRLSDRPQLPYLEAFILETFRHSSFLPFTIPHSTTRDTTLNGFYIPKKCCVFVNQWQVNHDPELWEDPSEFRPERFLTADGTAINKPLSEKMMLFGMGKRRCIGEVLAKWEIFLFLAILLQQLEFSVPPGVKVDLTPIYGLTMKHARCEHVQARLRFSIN
Nature of the data set: CYP450 inhibition at 10 μM. In kind it is biochemical. The conditions noted are these: 1A2, substrate Phenacetin.

The next data set deals with CYP2C19 (Homo sapiens, UniProt P33261). Nature of the data set: in vitro. The conditions noted are these: probe Mephenytoin.
Chain of CYP2C19 (P33261 whole entry): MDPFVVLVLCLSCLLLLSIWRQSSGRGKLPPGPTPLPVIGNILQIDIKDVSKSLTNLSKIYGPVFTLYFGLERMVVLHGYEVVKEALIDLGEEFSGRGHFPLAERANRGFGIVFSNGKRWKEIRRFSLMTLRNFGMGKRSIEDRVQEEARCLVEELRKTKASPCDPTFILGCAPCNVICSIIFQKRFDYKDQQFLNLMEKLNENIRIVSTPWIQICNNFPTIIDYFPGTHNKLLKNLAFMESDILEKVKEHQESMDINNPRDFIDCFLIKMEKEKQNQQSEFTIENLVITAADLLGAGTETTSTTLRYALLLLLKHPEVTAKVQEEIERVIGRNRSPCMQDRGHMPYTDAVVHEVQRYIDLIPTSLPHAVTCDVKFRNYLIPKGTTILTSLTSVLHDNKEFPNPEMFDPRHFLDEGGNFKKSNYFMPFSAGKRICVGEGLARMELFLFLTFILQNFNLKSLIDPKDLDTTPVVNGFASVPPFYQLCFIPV
For another data set, the target named is CYP2C8 (Homo sapiens, UniProt P10632). Nature of the data set: in vitro. To be noted: probe Amodiaquine.
Chain of CYP2C8 (P10632 whole entry): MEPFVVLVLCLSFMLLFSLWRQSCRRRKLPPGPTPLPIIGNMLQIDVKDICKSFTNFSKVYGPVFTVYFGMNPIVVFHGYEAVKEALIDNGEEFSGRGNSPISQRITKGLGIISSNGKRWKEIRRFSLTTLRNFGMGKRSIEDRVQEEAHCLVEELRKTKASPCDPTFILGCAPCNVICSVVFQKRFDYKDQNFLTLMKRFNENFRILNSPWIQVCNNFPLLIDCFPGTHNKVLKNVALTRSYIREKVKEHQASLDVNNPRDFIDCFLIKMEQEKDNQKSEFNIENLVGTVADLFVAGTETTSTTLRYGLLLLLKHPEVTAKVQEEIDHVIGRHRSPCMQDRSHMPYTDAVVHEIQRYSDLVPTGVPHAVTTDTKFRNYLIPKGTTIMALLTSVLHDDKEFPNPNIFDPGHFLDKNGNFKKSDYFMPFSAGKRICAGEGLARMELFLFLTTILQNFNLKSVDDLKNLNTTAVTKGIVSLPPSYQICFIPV
The next data set has as its target CYP2D6 (Homo sapiens, UniProt P10635). Nature of the data set: in vitro.
The target in a further data set is CYP2C9 (Homo sapiens, UniProt P11712). Nature of the data set: in vitro.
Chain of CYP2C9 (P11712 whole entry): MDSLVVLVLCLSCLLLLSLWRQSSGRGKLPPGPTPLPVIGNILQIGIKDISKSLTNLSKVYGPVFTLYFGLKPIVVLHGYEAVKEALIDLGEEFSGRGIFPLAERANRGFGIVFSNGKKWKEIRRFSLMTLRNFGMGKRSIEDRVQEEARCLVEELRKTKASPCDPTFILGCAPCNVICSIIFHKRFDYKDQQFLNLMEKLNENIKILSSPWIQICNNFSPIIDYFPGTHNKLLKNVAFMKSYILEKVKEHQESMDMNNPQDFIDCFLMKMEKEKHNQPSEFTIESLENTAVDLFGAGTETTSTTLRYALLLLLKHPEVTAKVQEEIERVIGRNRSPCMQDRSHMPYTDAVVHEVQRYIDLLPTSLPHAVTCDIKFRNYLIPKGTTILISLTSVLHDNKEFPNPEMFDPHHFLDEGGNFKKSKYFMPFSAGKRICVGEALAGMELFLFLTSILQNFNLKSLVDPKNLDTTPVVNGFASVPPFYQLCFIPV
The target in the next data set is CYP2B6 (Homo sapiens, UniProt P20813). Nature of the data set: in vitro. To be noted: probe Buproprion.
Chain of CYP2B6 (P20813 whole entry): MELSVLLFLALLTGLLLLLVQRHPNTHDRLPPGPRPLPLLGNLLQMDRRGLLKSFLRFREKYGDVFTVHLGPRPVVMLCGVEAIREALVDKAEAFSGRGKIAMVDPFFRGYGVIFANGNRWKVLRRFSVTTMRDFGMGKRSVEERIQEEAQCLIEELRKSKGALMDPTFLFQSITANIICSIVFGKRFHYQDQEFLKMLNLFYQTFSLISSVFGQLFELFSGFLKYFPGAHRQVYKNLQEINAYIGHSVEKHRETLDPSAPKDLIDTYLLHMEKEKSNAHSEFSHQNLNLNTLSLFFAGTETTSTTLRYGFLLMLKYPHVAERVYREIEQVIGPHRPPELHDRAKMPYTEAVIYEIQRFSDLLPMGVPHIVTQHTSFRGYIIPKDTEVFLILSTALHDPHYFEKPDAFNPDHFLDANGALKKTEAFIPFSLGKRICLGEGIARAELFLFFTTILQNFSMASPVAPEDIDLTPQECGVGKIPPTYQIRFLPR
The next data set in a line: in vitro. The conditions noted are these: plasma. The protocol: With this method, free compound is separated from protein-bound compound by dialysis across a semi-permeable membrane.
The protein binding was tested at a concentration of 1 μM. Pooled human, cynomolgus monkey, dog, and rat K2EDTA plasma was thawed and centrifuged at 2000×g for 10 minutes at 4° C. to remove particulates; any lipid on the top of the supernatant was also removed by aspiration. The plasma was warmed to 37° C. for 10 minutes before use. Test compounds were spiked into 2 ml plasma in a polypropylene plate to a final concentration of 1 μM. Triplicate 400 μl aliquots of spiked plasma were transferred into the Thermo RED dialysis units and dialyzed against 600 μl of PBS buffer. […] After 6 hours dialysis, triplicate 50 μl aliquots were removed from the RED plate, matrix-matched with either PBS buffer or blank plasma, as appropriate, and quenched with 4 volumes of ACN containing an internal standard. The extracted samples were then centrifuged at 2000×g for 5 minutes at 4° C. The supernatant (50 μl) was removed and diluted with 100 μl water prior to LC/MS/MS bioanalysis.

Chain of CYP2D6 (P10635 whole entry): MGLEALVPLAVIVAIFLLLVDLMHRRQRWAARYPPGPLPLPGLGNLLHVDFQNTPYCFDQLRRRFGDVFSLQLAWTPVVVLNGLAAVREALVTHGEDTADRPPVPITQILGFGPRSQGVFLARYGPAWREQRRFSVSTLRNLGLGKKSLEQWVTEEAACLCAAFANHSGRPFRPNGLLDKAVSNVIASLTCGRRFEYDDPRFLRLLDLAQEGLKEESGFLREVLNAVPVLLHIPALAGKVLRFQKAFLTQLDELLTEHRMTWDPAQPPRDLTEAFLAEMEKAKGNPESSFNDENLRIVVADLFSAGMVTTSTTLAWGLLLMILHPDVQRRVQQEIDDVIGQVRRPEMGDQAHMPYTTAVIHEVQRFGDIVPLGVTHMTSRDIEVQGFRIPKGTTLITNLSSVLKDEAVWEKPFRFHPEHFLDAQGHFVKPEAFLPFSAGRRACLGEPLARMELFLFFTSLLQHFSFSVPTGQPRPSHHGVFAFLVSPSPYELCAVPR

Broadly, the inhibition is the change of the read-out against control, counted positive when it falls. Turning to `COCCCC/C(=N\OCCN)c1ccc(C(F)(F)F)cc1` [Fluvoxamine, reference compound], testing at 10 µM against CYP1A2 gave an inhibition of 96.6%.

In the case of `COc1ccc2[nH]c([S+]([O-])Cc3ncc(C)c(OC)c3C)nc2c1` (centres unmarked) [Omeprazole, reference compound], at CYP2C19, the inhibition at 10 µM was 68.2%.

For `O=c1c(O)c(-c2ccc(O)c(O)c2)oc2cc(O)cc(O)c12` [Quercetin, reference compound], the inhibition at 10 µM on CYP2C8 is 61.5%.

For the molecule `C=C[C@H]1C[N@@]2CC[C@H]1C[C@@H]2[C@@H](O)c1ccnc2ccc(OC)cc12` [Quinidine, reference compound], the inhibition at 1 μM against CYP2D6 is 55.8%.

In turn, `Nc1ccc(S(=O)(=O)Nc2ccnn2-c2ccccc2)cc1` [Sulfaphenazole, reference compound] returned an inhibition at 10 µM against CYP2C9 of 95.3%.

The molecule `Clc1ccccc1CN1CCc2sccc2C1` [Ticlopidine, reference compound] came in with an inhibition at 10 µM on CYP2B6 of 98.2%.

By fraction unbound is commonly meant the share of the substance not bound to proteins or other matrix. On to `CC(=O)CC(c1ccccc1)c1c(O)c2ccccc2oc1=O` (centres unmarked) [Warfarin, reference compound], for which the unbound share (fraction unbound) at 6 h, 1 μM in “in vitro” (beagle, dog) is 0.065; in the data set “in vitro” (cynomolgus monkey) it was 0.011.
